{
  "source": "patent US11324798B2",
  "about": "“Materials and methods for treatment of inflammation” (CYTOGEL PHARMA, LLC, priority 2010, dated 2022)",
  "system": "mustard oil-induced acute neurogenic inflammation in the mouse ear",
  "assay": "Filtered and non-filtered CYT-1010 on 5% mustard oil-induced acute neurogenic ear swelling in mice (Example 4)",
  "format": "in vivo",
  "protocol": "Stock solution of the 100 μg/ml concentration of CYT-1010 (5.5 ml) was prepared fresh every experimental day with 20% hydroxypropyl-βcyclodextrin (HPCD) dissolved in sterile distilled water, shaken properly and sonicated. The vehicle was 20% HPCD dissolved in sterile distilled water. Further dilutions of the compound for the smaller administered doses were made with this vehicle. The applied concentrations were filtered through a 0.2 μm sterile teflon filter. […] The lower concentrations looked clear immediately. Non-filtered solutions were administered in the same concentrations in the parallel groups for comparison. Three doses of both the filtered and non-filtered CYT-1010 solutions (1, 10 and 100 μg/kg; 0.1 ml/10 g from the 0.1, 1 and 10 μg/ml solutions) were administered i.v. 5 min before the induction of the inflammation. Animals of the control group were treated with the same volume of the HPCD after or without the same filtration procedure.\nMice were anaesthesized with urethane (1.2 g/kg i.p.) to achieve a long-lasting deep anaesthesia and minimize respiratory depression. Ten μl of 5% mustard oil dissolved in paraffin oil was smeared on both sides of both ears. Mustard oil in this concentration selectively activates Transient Receptor Potential A1 (TRPA1) on capsaicin-sensitive peptidergic sensory nerves and induces the release of sensory neuropeptides (Banvolgyi et al., 2004). The released calcitonin gene-related peptide (CGRP) and tachykinins such as substance P (SP) in the innervated area evoke vasodilatation and plasma protein extravasation collectively called acute neurogenic inflammation (Helyes et al., 1997, 2001, 2006; Borzsei et a., 2008).\nCYT-1010 (1, 10 and 100 μg/kg; 0.1 ml/10 g from the 0.1, 1, 10 μg/ml solutions) was administered i.v. 5 min before the induction of the inflammation by mustard oil smearing. Mice in the control group were treated with the same volume of the vehicle, 20% HPCD dissolved in sterile distilled water\nThere were 8 mice in each experimental group, and 9 in the 1 μg/kg filtered CYT-1010 dose group […].\n65 male CD1 mice (25-35 g) were divided into 8 experimental groups: Group 1: non-filtered vehicle-treated controls (n=8); Group 2: non-filtered 1 μg/kg CYT-1010 (n=8); Group 3: non-filtered 10 μg/kg CYT-1010 (n=8); Group 4: non-filtered 100 μg/kg CYT-1010 (n=8); Group 5: filtered vehicle-treated controls (n=8); Group 6: filtered 1 μg/kg CYT-1010 (n=9); Group 7: filtered 10 μg/kg CYT-1010 (n=8); and Group 8: filtered 100 μg/kg CYT-1010 (n=8).\nThis study was undertaken in blocks with 16-17 mice per occasion. The whole set of data was obtained during 4 days (12, 13, 16, 22 Apr. 2010). There were 2 or 3 solvent-treated rats every day and the remaining 12 animals were randomised to receive each treatment.\nThe diameter of the ear was measured with an engineers' micrometer before the treatment and 4 times during the 3 h-examination period (20 min, 1 h, 2 h and 3 h). Edema was expressed in % compared to the initial control values (Banvolgyi et al., 2004; Borzsei et al., 2008). The compound was administered i.v. 5 min before mustard oil smearing in 3 doses (1, 10, 100 μg/kg) in separate groups after sterile filtration or without filtration. Animals of the control group were treated with the same volume of the vehicle\nResults are expressed as the mean±s.e.m. Statistical significance was performed with one-way ANOVA followed by Dunnett's post-hoc test (modified t-test) when the data of the CYT-1010-treated groups were compared to the respective vehicle-treated controls at certain time points. The areas under the time-dependent percentage ear swelling curves (AUC) were also calculated and analyzed with the same statistics to compare the whole edema responses of the CYT-1010-treated mice during the 3 h-experimental period to the respective control group. *p<0.05 was considered to be significant. […]",
  "note": "“Also recorded” adds a separate entry of the source.",
  "data": [
    {"smiles": "NC(Cc1ccc(O)cc1)C(=O)NC1CCCCNC(=O)C(Cc2ccccc2)NC(=O)C(Cc2c[nH]c3ccccc23)NC1=O", "note": "[CYT-1010, H-Tyr-c-[D-Lys-Trp-Phe]]", "values": [
      {"measurement": "Effect of filtration on the inhibitory action of CYT-1010", "setting": "0.2 μm sterile filter, filtered vs non-filtered", "value": "moderately decreases"},
      {"measurement": "AUC of time course of percentage ear swelling", "setting": "filtered (0.2 μm), 1 μg/kg i.v., control 50.04±6.96, NS", "value": "51.47±6.93", "unit": "units"},
      {"measurement": "AUC of time course of percentage ear swelling", "setting": "filtered (0.2 μm), 10 μg/kg i.v., control 50.04±6.96, NS", "value": "33.68±3.79", "unit": "units"},
      {"measurement": "AUC of time course of percentage ear swelling", "setting": "filtered (0.2 μm), 100 μg/kg i.v., control 50.04±6.96, NS", "value": "33.97±5.62", "unit": "units"},
      {"measurement": "Effect on mustard oil-induced ear swelling", "setting": "filtered, 1 μg/kg i.v.", "value": "did not influence ear swelling; also recorded: did not have any effect"},
      {"measurement": "Effect on mustard oil-induced ear swelling", "setting": "filtered, 10 μg/kg and 100 μg/kg i.v., 20 min", "value": "inhibited significantly"},
      {"measurement": "Effect on mustard oil-induced ear swelling", "setting": "filtered, two higher doses (10 and 100 μg/kg i.v.)", "value": "moderate inhibition"},
      {"measurement": "Effect on mustard oil-induced ear swelling", "setting": "non-filtered, 1 μg/kg i.v.", "value": "did not significantly diminish ear swelling"},
      {"measurement": "AUC of time course of percentage ear swelling", "setting": "non-filtered, 1 μg/kg i.v., control 44.02±6.97, NS", "value": "40.33±5.32", "unit": "units"},
      {"measurement": "Extent of the inhibition of ear swelling", "setting": "non-filtered, 10 μg/kg and 100 μg/kg i.v., both cases", "value": "about 50%"},
      {"measurement": "Effect on mustard oil-induced ear swelling", "setting": "non-filtered, 10 μg/kg and 100 μg/kg i.v., from 20 min until the 2 hour time point", "value": "significantly inhibited; also recorded: significantly reduced"},
      {"measurement": "AUC of time course of percentage ear swelling", "setting": "non-filtered, 10 μg/kg i.v., control 44.02±6.97, P<0.05", "value": "24.21±2.75", "unit": "units"},
      {"measurement": "AUC of time course of percentage ear swelling", "setting": "non-filtered, 100 μg/kg i.v., control 44.02±6.97, P<0.01", "value": "21.71±1.72", "unit": "units"}
    ]}
  ]
}
